Measurements from US6867320B2, “Substituted phenylalkanoic acid derivatives and use thereof” (Asahi Kasei Pharma Corporation, priority 2002, dated 2005).

Key:
[1] = tested on: PGE2 production from IL-1β-stimulated MG-63 cells; assay: Suppressing action on PGE2 production from IL-1β-stimulated MG-63 cells; format: cell-based; details: Homo sapiens, IL-1β 1 ng/ml, 18 hours, read-out: PGE2 production suppression ratio
Text: 1. Suppressing Action on PGE2 Production from IL-1β-Stimulated MG-63 Cells (1) Method for Measurement
An action of suppressing PGE2 production caused by interleukin (IL) 1β as an inflammatory stimulant was studied by the following method. Cells of MG-63, which is a human osteosarcoma cell line (purchased from Dainippon Pharmaceutical), were suspended in EMEM medium (GIBCO) containing 10% fetal bovine serum (BioFluid), and then inoculated to each well of 96-well culture plate at a density of 2×10^4 cells/well and cultured overnight. The medium was changed to EMEM medium containing 0.5% fetal bovine serum, and then a test compound was added with each well. Human interleukin-1β (ENDOGEN) was further added as an inflammatory stimulant at a final concentration of 1 ng/ml. The cells were further cultured for 18 hours. The culture supernatant was collected, and the PGE2 concentration in the culture supernatant was measured by using EIA kit (CAYMAN). By using a well which was not added with the stimulant as a negative control and a well which was added only with the stimulant as a positive control, suppression ratios on PGE2 production were calculated from produced amounts of PGE2 in the well added with the test compound using the following equation. PGE2 production suppression ratio=[1−(C−B)/(A−B)]×100 • A: PGE2 production amount of positive control • B: PGE2 production amount of negative control • C: PGE2 production amount in well added with test compound

[2] = tested on: zymosan-stimulated footpad edema; assay: Mouse zymosan-stimulated footpad edema reaction; format: in vivo; details: ICR female mice, oral 0.1 to 500 mg/kg, compared with positive control group
Experimental: 3. Suppressing Effect on Mouse Zymosan-stimulated Footpad Edema Reaction A suppressing effect on footpad edema caused by zymosan as an inflammatory stimulant was studied by the following method. Groups of ICR female mice (6- to 7-week old) each consisting of eight mice were used for the test. A test compound was suspended or dissolved in purified water containing 0.5% methylcellulose and orally administered to the test animals at 0.1 to 500 mg/0.2 ml/kg. To the control group, purified water containing 0.5% methylcellulose was administered in a similar manner, which was not added with a test compound. One hour after the administration of the test compound, 0.02 ml of a suspension of zymosan suspended in physiological saline (Otsuka Pharmaceutical) at 1 mg/ml was subcutaneously administered to right hind leg footpad of each mouse. One and two hours after the administration of the zymosan suspension, volume of the right hind leg footpad was measured by using an apparatus for measuring a volume of mouse hind leg footpad edema (Unicom). A difference of the volume of footpad measured above and the footpad volume before the administration of the test compound measured beforehand was regarded as a volume of the edema. For the volume of the edema at 1 hour or 2 hours after the zymosan administration, a graph was prepared by indicating time in abscissa and the edema volume in ordinate, and an edema volume AUC (area under the curve) was obtained up to 2 hours by calculation using the following equation. Edema volume AUC (1·hour)=1/2×1×A+1×(A+B)/2 • A: Edema volume 1 hour after zymosan administration • B: Edema volume 2 hour after zymosan administration A suppression ratio on edema of test compound was obtained by calculation using the following equation. Edema suppression ratio (%)=[1−B/A]×100 • A: Edema volume AUC of positive control • B: Edema volume AUC of test compound administered group (2) Measurement Results

For `CCCCOc1ccc(CCC(=O)O)cc1-c1ccc2nc(N)sc2c1` [Compound 291, 3-[3-(2-aminobenzothiazol-6-yl)-4-butyloxyphenyl]propionic acid], the inhibition at 0.4 µM [1] was at least 50% and the “suppression of footpad edema caused by zymosan” value (“suppression” below) [2] was “suppressed footpad edema”.
For `O=C(O)CCc1ccc(OCCOc2ccccc2)c(-c2ccc3[nH]ccc3c2)c1` [Compound 222, 3-{3-(1H-indol-5-yl)-4-[2-(phenyloxy)ethyloxy]phenyl}propionic acid], the inhibition at 0.4 µM [1] was at least 50% and the “suppression” value [2] was “suppressed footpad edema”.
For `CC(C)(C)c1ccc(COc2ccc(CCC(=O)O)cc2-c2ccc3[nH]ccc3c2)cc1` [Compound 329], the “suppression” value [2] was “suppressed footpad edema”.
With “3-[4-isopropyloxy-3-(1H-indol-5-yl)phenyl]propionate [Compound 173]” the “suppression” value [2] was “suppressed footpad edema”.
With `O=C(O)CCc1ccc(OCc2ccccc2F)c(-c2ccc3ccccc3c2)c1` [Compound 031, 3-[4-(2-fluorophenylmethyloxy)-3-(naphthalen-2-yl)phenyl]propionic acid] the inhibition at 0.4 µM [1] was at least 50% and the “suppression” value [2] was “suppressed footpad edema”.
In the case of “3-(3-{6-[(2-aminoacetyl)amino]Naphthalen-2-yl}-4-cyclopentyl-methyloxyphenyl)propionic acid [Compound 078]”, the “suppression” value [2] is reported as “suppressed footpad edema”.
With `COc1ccc(CCOc2ccc(CCC(=O)O)cc2-c2ccc3[nH]ccc3c2)cc1` [Compound 207, 3-{3-(1H-indol-5-yl)-4-[2-(4-methoxyphenyl)ethyloxy]phenyl}propionic acid] the inhibition at 0.4 µM [1] was at least 50% and the “suppression” value [2] was “suppressed footpad edema”.
`O=C(O)CCc1ccc(OCCc2ccccc2F)c(-c2ccc3[nH]ccc3c2)c1` [Compound 106, 3-{4-[2-(2-fluorophenyl)ethyloxy]-3-(1H-indol-5-yl)phenyl}propionic acid] was tested, and the inhibition at 0.4 µM [1] was at least 50% and the “suppression” value [2] was “suppressed footpad edema”.
In the case of `O=C(O)CCc1ccc(OCC2CCCC2)c(-c2ccc3cc(NC(=O)CO)ccc3c2)c1` [Compound 079, 3-(4-cyclopentylmethyloxy-3-{6-[2-(hydroxyacetyl)amino]naphthalen-2-yl}phenyl)propionic acid], the “suppression” value [2] is reported as “suppressed footpad edema”.
`O=C(O)CCc1ccc(OCCc2ccccc2F)c(-c2ccc3cc(O)ccc3c2)c1` [Compound 006, 3-{4-[2-(2-fluorophenyl)ethyloxy]-3-(6-hydroxynaphthalen-2-yl)phenyl}propionic acid] was tested, and the inhibition at 0.4 µM [1] was at least 50% and the “suppression” value [2] was “suppressed footpad edema”.
For `CN(C)c1ccc(CCOc2ccc(CCC(=O)O)cc2-c2ccc3[nH]ccc3c2)cc1` [Compound 215, 3-(4-{2-[4-(N,N-dimethylamino)phenyl]Ethyloxy}-3-[1H-indol-5-yl]phenyl)propionic acid], the inhibition at 0.4 µM [1] was at least 50% and the “suppression” value [2] was “suppressed footpad edema”.
With `O=C(O)CCc1ccc(OCCOc2ccccc2Cl)c(-c2ccc3[nH]ccc3c2)c1` [Compound 224, 3-{4-[2-(2-chlorophenyloxy)ethyloxy]-3-(1H-indol-5-yl)phenyl}propionic acid] the inhibition at 0.4 µM [1] was at least 50% and the “suppression” value [2] was “suppressed footpad edema”.
In the case of `O=C(O)CCc1ccc(OCc2c(Cl)cccc2Cl)c(-c2ccc3[nH]ccc3c2)c1` [Compound 164, 3-[4-(2,6-dichlorophenylmethyloxy)-3-(1H-indol-5-yl)phenyl]propionic acid], the inhibition at 0.4 µM [1] is reported as at least 50% and the “suppression” value [2] is reported as “suppressed footpad edema”.
For `Cc1ccccc1COc1ccc(CCC(=O)O)cc1-c1ccc2[nH]ccc2c1` [Compound 134, 3-[3-(1H-indol-5-yl)-4-(2-methylphenylmethyloxy)phenyl]propionic acid], the inhibition at 0.4 µM [1] was at least 50%.
In the case of `O=C(O)CCc1ccc(OCC2CCCC2)c(-c2cccc3[nH]ccc23)c1` [Compound 114, 3-[4-cyclopentylmethyloxy-3-(1H-indol-4-yl)phenyl]propionic acid], the inhibition at 0.4 µM [1] is reported as at least 50% and the “suppression” value [2] is reported as “suppressed footpad edema”.
Compound `Cc1cc2cc(-c3cc(CCC(=O)O)ccc3OCC3CCCC3)ccc2[nH]1` [Compound 584, 3-[4-cyclopentylmethyloxy-3-(2-methyl-1H-indol-5-yl)phenyl]propionic acid] has an inhibition at 0.4 µM [1] of at least 50%.
For `Cc1cc(CCC(=O)O)cc(-c2ccc3[nH]ccc3c2)c1OC1CCCC1` [Compound 571, 3-[4-cyclopentyloxy-3-(1H-indol-5-yl)-5-methylphenyl]propionic acid], the inhibition at 0.4 µM [1] was at least 50%.
In the case of `Cn1c(=O)sc2cc(-c3cc(CCC(=O)O)ccc3OCC3CCCC3)ccc21` [Compound 313, 3-[4-cyclopentylmethyloxy-3-(2-oxo-3-methyl-2,3-dihydrobenzothiazol-6-yl)phenyl]propionic acid], the inhibition at 0.4 µM [1] is reported as at least 50%.
Compound `Cc1c[nH]c2ccc(-c3cc(CCC(=O)O)ccc3OCC3CCCC3)cc12` [Compound 112, 3-[4-cyclopentylmethyloxy-3-(3-methyl-1H-indol-5-yl)phenyl]propionic acid] has an inhibition at 0.4 µM [1] of at least 50%.
With `O=C(O)CCc1ccc(OCC2CCCC2)c(-c2ccc3[nH]c(=S)sc3c2)c1` [Compound 309, 3-[4-cyclopentylmethyloxy-3-(2-thioxo-2,3-dihydrobenzothiazol-6-yl)phenyl]propionic acid] the inhibition at 0.4 µM [1] was at least 50%.
Compound `O=C(O)CCc1cc(Cl)c(OCC2CCCC2)c(-c2ccc3[nH]ccc3c2)c1` [Compound 263, 3-[3-chloro-4-cyclopentylmethyloxy-5-(1H-indol-5-yl)phenyl]propionic acid] has an inhibition at 0.4 µM [1] of at least 50%.
`O=C(O)CCc1ccc(OCc2ccoc2)c(-c2ccc3[nH]ccc3c2)c1` [Compound 196, 3-{4-[(furan-3-yl)methyloxy]-3-(1H-indol-5-yl)phenyl}propionic acid] showed an inhibition at 0.4 µM [1] of at least 50%.
Compound `O=Cc1c[nH]c2ccc(-c3cc(CCC(=O)O)ccc3OCC3CCCC3)cc12` [Compound 254, 3-[4-cyclopentylmethyloxy-3-(3-formyl-1H-indol-5-yl)phenyl]propionic acid] has an inhibition at 0.4 µM [1] of at least 50%.
`Cn1ccc2cc(-c3cc(CCC(=O)O)cc(N)c3OCC3CCCC3)ccc21` [Compound 269, 3-[3-amino-4-cyclopentylmethyloxy-5-(1-methyl-1H-indol-5-yl)phenyl]propionic acid] showed an inhibition at 0.4 µM [1] of at least 50%.
